Laboratory results: PMC10528180 (Foods, 2023)
Like-named read-outs stand apart in the source and are kept apart here.

Legend:
db/db mice = experiment: Postprandial blood glucose level measurement after oral starch load; format: in vivo; conditions: 100 mg/kg, oral starch 2 g/kg
Description: db/db mice and C57BL/6J mice were purchased f0rom Beijing Zhishan Health Medical Research Institute. The animal testing procedure was approved by Beijing Huayuan Times Technology Co., Ltd Ethics Committee on the Management and Welfare of Laboratory Animals. (Ethics review batch number: HYSD2023-04) and strictly follows the local and national codes of ethics. All mice were placed in a control chamber at 25 °C and 60% relative humidity with a light/dark period of 12/12 h. During this period, all mice had free access to normal feed and water. […] All mice were given starch (2 g/kg) orally 60 min after treatment. Blood samples were taken from the caudal vein and blood glucose was measured after 0, 30, 60, and 120 min. The area under the curve (AUC) was calculated using the trapezoidal rule.

α-amylase = target: T1, α-amylase (Sus scrofa, UniProt P00690); experiment: In vitro α-amylase activity assay (G3-CNP, absorbance 405 nm); format: biochemical, porcine; conditions: for inhibition at 500 µM: read-out: α-Amylase inhibition
T1 construct: α-amylase (EC 232-565-6, powder, ≥5 units/mg solid) isolated from porcine pancreas; purchased Sigma-Aldrich Co; host or cells: porcine pancreas
T1 sequence (P00690 16-511): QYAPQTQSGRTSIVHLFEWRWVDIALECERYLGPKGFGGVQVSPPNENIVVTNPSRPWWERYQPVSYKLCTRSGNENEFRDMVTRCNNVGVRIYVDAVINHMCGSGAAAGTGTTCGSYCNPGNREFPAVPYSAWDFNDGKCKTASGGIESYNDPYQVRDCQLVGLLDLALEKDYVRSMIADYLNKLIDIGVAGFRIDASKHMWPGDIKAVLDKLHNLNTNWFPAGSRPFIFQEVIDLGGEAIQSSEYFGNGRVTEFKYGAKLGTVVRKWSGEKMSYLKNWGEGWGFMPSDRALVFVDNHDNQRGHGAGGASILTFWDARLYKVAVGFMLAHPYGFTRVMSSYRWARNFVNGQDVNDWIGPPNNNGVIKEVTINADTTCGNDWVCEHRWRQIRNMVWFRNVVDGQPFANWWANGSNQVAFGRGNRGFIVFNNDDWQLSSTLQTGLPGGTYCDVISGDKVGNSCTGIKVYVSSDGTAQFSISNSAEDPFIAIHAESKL
Description: (§1) The other reagents used in this experiment are analytically pure reagents purchased from Sigma-Aldrich Co. (St. Louis, MI, USA) unless specified otherwise.
(§2) The in vitro […] activity assay was determined using spectrophotometry, as previously reported, with only minor modifications. A total of 5 U/mL of α-amylase and the appropriate quantity of 2-chloro-4-nitrophenyl α-D-maltotrioside (G3-CNP) were produced. […] Gradient dilution with a phosphate-buffered solution was used to create sample solutions of various concentrations. First, different concentrations of compound (10 μL), an enzyme solution (40 μL), and potassium phosphate buffer (100 μL) were pre-incubated in 96-well plates at 37 °C for 10 min.
(§3) The enzymatic inhibitory activity of the tested compounds was calculated using the following formula: Inhibition %=[(Abs control−Abs sample)/Abs control]×100
(§4) The IC50 values of the tested compounds were calculated using nonlinear fitting (logit method).

α-glucosidase = target: T2, α-glucosidase (Saccharomyces cerevisiae, UniProt P53341); experiment: biochemical; conditions: for inhibition at 500 µM: read-out: α-Glucosidase inhibition
T2 construct: purchased Sigma-Aldrich Co
T2 sequence (P53341 whole entry): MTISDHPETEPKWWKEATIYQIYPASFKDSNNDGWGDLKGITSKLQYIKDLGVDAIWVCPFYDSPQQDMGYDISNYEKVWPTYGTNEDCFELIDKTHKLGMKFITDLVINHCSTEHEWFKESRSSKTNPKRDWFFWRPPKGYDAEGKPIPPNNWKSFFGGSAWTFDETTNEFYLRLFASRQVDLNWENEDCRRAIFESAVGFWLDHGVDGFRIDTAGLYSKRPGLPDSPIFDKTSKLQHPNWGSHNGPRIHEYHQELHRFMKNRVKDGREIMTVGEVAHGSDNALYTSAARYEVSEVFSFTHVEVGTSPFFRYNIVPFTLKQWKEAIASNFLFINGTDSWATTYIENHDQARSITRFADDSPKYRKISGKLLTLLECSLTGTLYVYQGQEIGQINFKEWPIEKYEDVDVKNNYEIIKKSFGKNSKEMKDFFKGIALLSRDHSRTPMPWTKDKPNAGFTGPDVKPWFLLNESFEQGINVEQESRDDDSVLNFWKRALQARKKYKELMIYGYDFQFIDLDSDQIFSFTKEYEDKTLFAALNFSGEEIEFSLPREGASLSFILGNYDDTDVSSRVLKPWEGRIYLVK
Description: as §1
as §2, with “In phosphate buffer with a pH” for “A total”, “6.8, 0.5” for “5”, “α-glucosidase” for “α-amylase”, “p-nitrophenyl-D-glucopyranoside (pNGP)” for “2-chloro-4-nitrophenyl α-D-maltotrioside (G3-CNP)”
as §3, §4

[1] = read-out: α-amylase inhibition IC50±SEM
[2] = read-out: α-glucosidase inhibition IC50±SEM

| Molecule | inhibition at 500 µM (α-glucosidase) | inhibition at 500 µM (α-amylase; at 500 µM) | IC50 (α-glucosidase) | IC50 (α-amylase; [1]) | further results |
| --- | --- | --- | --- | --- | --- |
| C[C@H]1O[C@H](O[C@H]2[C@H](O)[C@@H](O)[C@@H](O[C@H]3[C@H](O)[C@@H](O)C(O)O[C@@H]3CO)O[C@@H]2CO)[C@H](O)[C@@H](O)[C@@H]1N[C@H]1C=C(CO)[C@@H](O)[C@H](O)[C@H]1O (stereo partly drawn) [Acarbose, reference compound] | 49% | – | – | – | glucose AUC (db/db mice): 43.0 mmol·h/L; reduction of glucose AUC of diabetic mice (db/db mice; vs model): 20.31%; inhibition at 500 µM (α-amylase): 99% |
| O=c1cc(-c2ccc(O)cc2)oc2cc(O[C@@H]3O[C@H](CO)[C@@H](O)[C@H](O)[C@H]3O)cc(O)c12 [Apigetrin] | 74% | 12% | 187 ± 6.93 µM | – | selectivity for glucosidase over α-amylase among the 12 compounds (α-glucosidase; inhibition at 500 µM of both enzymes compared): selective inhibition of glucosidase |
| O=c1c(O[C@@H]2O[C@@H](CO)[C@H](O)[C@H]2O)c(-c2ccc(O)c(O)c2)oc2cc(O)cc(O)c12 [Avicularin] | 33% | 19% | > 500 µM | – | IC50 (α-amylase): > 500 µM |
| O=C(O[C@@H]1Cc2c(O)cc(O)cc2O[C@@H]1c1ccc(O)c(O)c1)c1cc(O)c(O)c(O)c1 [Epicatechin gallate] | 61% | 62% | > 250 µM | > 250 µM | – |
| O=c1c(O[C@@H]2O[C@H](CO)[C@H](O)[C@H](O)[C@H]2O)c(-c2ccc(O)c(O)c2)oc2cc(O)cc(O)c12 [Hyperoside] | 48% | 28% | > 500 µM | > 500 µM | – |
| O=c1cc(-c2ccc(O)cc2)oc2cc(O)c([C@@H]3O[C@H](CO)[C@@H](O)[C@H](O)[C@H]3O)c(O)c12 [Isovitexin] | – | 43% | – | – | IC50 (α-amylase): > 500 µM |
| O=c1cc(-c2ccccc2)oc2cc(O[C@@H]3O[C@H](CO)[C@@H](O)[C@H](O)[C@H]3O)c(O)c(O)c12 [Oroxin A] | 10% | 60% | – | > 250 µM | IC50 (α-glucosidase; [2]): > 500 µM |
| O=c1c(O)c(-c2ccc(O)c(O)c2)oc2cc(O[C@@H]3O[C@H](CO)[C@@H](O)[C@H](O)[C@H]3O)c(O)c(O)c12 [Quercetagitrin] | 56% | 71% | – | > 125 µM | IC50 (α-glucosidase; [2]): > 250 µM |
| C[C@@H]1O[C@@H](Oc2c(-c3ccc(O)c(O)c3)oc3cc(O)cc(O)c3c2=O)[C@H](O)[C@H](O)[C@H]1O [Quercitrin] | 38% | 22% | > 500 µM | > 500 µM | – |
| O=C(O)C1OC(Oc2c(-c3ccc(O)c(O)c3)oc3cc(O)cc(O)c3c2=O)C(O)C(O)C1O (stereo not drawn) [Quercituron] | 17% | 42% | – | > 500 µM | IC50 (α-glucosidase; [2]): > 500 µM |
| O=c1c(O[C@@H]2O[C@H](CO)[C@H](O)[C@H](O)[C@H]2O)c(-c2ccc(O)cc2)oc2cc(O)cc(O)c12 [Trifolin] | – | 19% | – | > 500 µM | – |
| Catechin gallate | – | – | – | – | α-Amylase inhibition (α-amylase; at 500 µM): 82%; α-Glucosidase inhibition (α-glucosidase; at 500 µM): 94% |
